Entries after “also recorded” stand apart in the source; their conditions may differ.
Tested on: smokers, 36 hours of smoking abstinence
Experiment: Replication crossover study: Questionnaire on Smoking Urges-Brief on Day 2 of 36 hours smoking abstinence (Example 2)
Format: in vivo, human
Excerpt: Results from Day 2 are presented. The main differences between Example 1 and Example 2 are: (1) parallel vs crossover design, and (2) placebo content: the parallel design placebo was normal saline, the crossover design was 8.7% NaCl. The purpose of increasing the placebo salt content in the crossover study was to maintain the blind.
Study participants began their first night of smoking abstinence at 20:00 prior to reporting to the inpatient unit of University of New Mexico Clinical and Translational Science Center at 11:30 the following day. During Day 1 at the hospital, participants provided a CO sample, which had to be 50% of their measurement at screening or less than 7 ppm and a negative breath alcohol test (0.00%). Additional criteria for session continuation included negative urine drug test and vitals within normal limits as described in the “Participants” section above. The study nurse evaluated the nares for abnormalities and checked POC glucose to ensure subjects were within normal limits prior to receiving spray.
During Day 1, participants were administered spray at 12:40, ate lunch at 13:00 and completed appetite ratings and a snacking test. Participants ate dinner at 19:00 and lights were turned off at 21:00.
The following morning, participants completed Questionnaire of Smoking Urges at 7:50. Prior to this first questionnaire administration, participants provided a urine sample, which had to be negative for illicit substances, and a CO sample, which had to be either 50% lower than the value on day 1, or less than 7 ppm. An intravenous line was established at 6:45 and a baseline blood sample was drawn. Study nurse checked POC glucose and completed a nares evaluation to confirm participant was within normal limits to receive spray. Spray administration occurred at 8:00, followed by breakfast at 8:20. Post-spray Questionnaire of Smoking Urges was completed at 8:15, 8:45, 9:15, 9:45, 10:30 and 11:30. During this time blood samples were taken for additional analyses. At noon, study nurse evaluated the nares to rule out abnormality and checked POC glucose to ensure that results were within normal limits. The two sessions were separated by one week.
Urges to smoke were rated using the 10-item Questionnaire on Smoking Urges-Brief (Cox et al., 2001. Nicotine Tob Res 3(1):7-16) that consists of 10-questions. The answers are scored from 1 (strongly disagree) to 7 (strongly agree). These questions are the bases for the two factor derived subscales. Factor 1 subscale reflects a strong desire and intention to smoke with smoking perceived as rewarding. Factor 2 subscale reflects an anticipation of relief from negative affect with an urgent desire to smoke. These two subscales were sub-analyses stemming from our main (overall) QSU-Brief analysis. Cravings were measured at −15, 0, +20, +60, +70, +80, +90 and +120 minutes from spray administration on Day 2.
Placebo contained 8.7% NaCl. Per FDA approved protocol, the product was prepared in a biosafety cabinet of UNM Translational Radiopharmacy. Drug Preparation occurred 30 minutes before administration. […] or placebo was placed in a 10 mL amber glass bottle (Gerresheimer AG, Düsseldorf, Germany), which was capped with a 10 mg sterile nasal pump (Aero Pump GmbH, Hochheim, Germany). Assembled product was primed per manufacturer's recommendations before 0.6 ml volume was administered to study participants. In a randomized fashion, study nurse administered one spray in each nostril every three minutes for the total of six sprays of either insulin or placebo. As each spray delivers 0.1 ml of fluid, and the concentration of insulin in Novolin R is 100 IU/mL, administering six sprays delivers 60 IU of insulin.
Random coefficient models were constructed for analyzing study outcomes. Treatment, time, treatment by time interaction, and sequence were included as fixed effects. Time nested within subjects, and time nested within treatment nested within subjects were included as random effects. […]

intranasal insulin: bulk human Regular insulin (U100 Novolin R, Novo Nordisk US), 100 IU/ml, six nasal sprays delivering 60 IU
Smoking urges (Questionnaire of Smoking Urges) compared to placebo, replication study (60 IU intranasal, crossover, morning of Day 2, 36 hours abstinence, p≤0.05): decreased significantly; also recorded: This finding was replicated
QSU-Brief Factor 2 compared to placebo, replication study (60 IU, crossover, Day 2, p=0.18): no effect; also recorded: not Factor 2 scale
QSU-Brief Factor 1 compared to placebo, replication study (60 IU, crossover, Day 2, p≤0.05): significantly decreased; also recorded: the effect was driven by intranasal insulin's effect on Factor 1
QSU-Brief Factor 2, effect of treatment, b, replication study (SE(b)=0.87, z=1.34, p=0.18): 1.16
QSU-Brief Factor 1, effect of treatment, b, replication study (SE(b)=1.15, z=2.16, p≤0.05): 2.49
Smoking urges, effect of treatment, b, replication study (SE(b)=1.91, z=1.92, p≤0.05): 3.67

Source: US20190201494A1, “COMPOSITIONS AND METHODS FOR TREATING NICOTINE WITHDRAWAL” (STC UNM, priority 2016, published 2019)
